Reference: patent publication US6995185B2, “Δ1-pyrrolines used as pesticides” (Bayer Cropscience AG, priority 2000, dated 2006)

Test: log P determination by HPLC on reversed-phase column (C 18), EEC directive 79/831 Annex V.A8
Assay type: physicochemical
Conditions: pH 2.3 (marked a), 0.1% aqueous phosphoric acid/acetonitrile, 43° C.
Procedure: The log P values given in the tables and Preparation Examples above are determined in accordance with EEC directive 79/831 Annex V.A8 by HPLC (High Performance Liquid Chromatography) using a reversed-phase column (C 18). Temperature: 43° C. In the acidic range, the determination is carried out at pH 2.3 using the mobile phases 0.1% aqueous phosphoric acid and acetonitrile; linear gradient from 10% acetonitrile to 90% acetonitrile (marked^a) in the table). In the neutral range, the determination is carried out at pH 7.5 using the mobile phases 0.01-molar aqueous phosphate buffer solution and acetonitrile; linear gradient from 10% acetonitrile to 90% acetonitrile (marked^b) in the table). Calibration is carried out using unbranched alkan-2-ones (having 3 to 16 carbon atoms) with known log P values (determination of the log P values by the retention times using linear interpolation between two successive alkanones).

log P | SMILES
6.28^a) | CC1CCC(OC(=O)[C@H]2CC(c3c(F)cccc3F)=NC2c2ccc(-c3ccc(OC(F)(F)F)cc3)cc2)CC1 (some centres unmarked) [Example 49]

Same assay, conditions: reversed-phase HPLC column (C 18), pH 2.3, pH 2.3 (marked a), 0.1% aqueous phosphoric acid/acetonitrile, 43° C.

chromatographic logP | SMILES
5.05 | COC(=O)[C@H]1CC(c2ccccc2Cl)=N[C@H]1c1ccc(-c2ccc(OC(F)(F)F)cc2)cc1 (racemic) [Example 5, methyl ((2S, 3R), (2R, 3S))-5-(2-chlorophenyl)-2-[4′-(trifluoromethoxy)-1,1′-biphenyl-4-yl]-3,4-dihydro-2H-pyrrole-3-carboxylate]
4.73 | CCOC(=O)[C@H]1CC(c2c(F)cccc2F)=NC1c1ccc(-c2ccc(OC(F)(F)F)cc2)cc1 (some centres unmarked) [Example 10]
3.35 | O=C(O)[C@H]1CC(c2c(F)cccc2F)=NC1c1ccc(-c2ccc(OC(F)(F)F)cc2)cc1 (some centres unmarked) [Example 11]
5.05 | CC(C)OC(=O)[C@H]1CC(c2c(F)cccc2F)=NC1c1ccc(-c2ccc(OC(F)(F)F)cc2)cc1 (some centres unmarked) [Example 12]
5.41 | CCCCOC(=O)[C@H]1CC(c2c(F)cccc2F)=NC1c1ccc(-c2ccc(OC(F)(F)F)cc2)cc1 (some centres unmarked) [Example 14]
6.11 | CCCCCCOC(=O)[C@H]1CC(c2c(F)cccc2F)=NC1c1ccc(-c2ccc(OC(F)(F)F)cc2)cc1 (some centres unmarked) [Example 15]
5.4 | CCC(C)OC(=O)[C@H]1CC(c2c(F)cccc2F)=NC1c1ccc(-c2ccc(OC(F)(F)F)cc2)cc1 (some centres unmarked) [Example 16]
5.38 | CC(C)COC(=O)[C@H]1CC(c2c(F)cccc2F)=NC1c1ccc(-c2ccc(OC(F)(F)F)cc2)cc1 (some centres unmarked) [Example 17]
5.47 | O=C(OC1CCCC1)[C@H]1CC(c2c(F)cccc2F)=NC1c1ccc(-c2ccc(OC(F)(F)F)cc2)cc1 (some centres unmarked) [Example 18]
5.85 | O=C(OC1CCCCC1)[C@H]1CC(c2c(F)cccc2F)=NC1c1ccc(-c2ccc(OC(F)(F)F)cc2)cc1 (some centres unmarked) [Example 19]
5.84 | CCCCCOC(=O)[C@H]1CC(c2c(F)cccc2F)=NC1c1ccc(-c2ccc(OC(F)(F)F)cc2)cc1 (some centres unmarked) [Example 20]
5.78 | CC(C)(C)COC(=O)[C@H]1CC(c2c(F)cccc2F)=NC1c1ccc(-c2ccc(OC(F)(F)F)cc2)cc1 (some centres unmarked) [Example 21]
5.71 | CC(C)C(C)OC(=O)[C@H]1CC(c2c(F)cccc2F)=NC1c1ccc(-c2ccc(OC(F)(F)F)cc2)cc1 (some centres unmarked) [Example 22]
5.78 | CCC(CC)OC(=O)[C@H]1CC(c2c(F)cccc2F)=NC1c1ccc(-c2ccc(OC(F)(F)F)cc2)cc1 (some centres unmarked) [Example 23]
4.37 | COCCOC(=O)[C@H]1CC(c2c(F)cccc2F)=NC1c1ccc(-c2ccc(OC(F)(F)F)cc2)cc1 (some centres unmarked) [Example 24]
4.08 | N#CCCOC(=O)[C@H]1CC(c2c(F)cccc2F)=NC1c1ccc(-c2ccc(OC(F)(F)F)cc2)cc1 (some centres unmarked) [Example 25]
5.48 | C=CCCCOC(=O)[C@H]1CC(c2c(F)cccc2F)=NC1c1ccc(-c2ccc(OC(F)(F)F)cc2)cc1 (some centres unmarked) [Example 26]
5.48 | C=C(C)CCOC(=O)[C@H]1CC(c2c(F)cccc2F)=NC1c1ccc(-c2ccc(OC(F)(F)F)cc2)cc1 (some centres unmarked) [Example 27]
4.87 | O=C(OCc1ccoc1)[C@H]1CC(c2c(F)cccc2F)=NC1c1ccc(-c2ccc(OC(F)(F)F)cc2)cc1 (some centres unmarked) [Example 28]
4.23 | N#CCOC(=O)[C@H]1CC(c2c(F)cccc2F)=NC1c1ccc(-c2ccc(OC(F)(F)F)cc2)cc1 (some centres unmarked) [Example 29]
4.18 | N#CCCCOC(=O)[C@H]1CC(c2c(F)cccc2F)=NC1c1ccc(-c2ccc(OC(F)(F)F)cc2)cc1 (some centres unmarked) [Example 30]
5.55 | O=C(OC/C=C/c1ccccc1)[C@H]1CC(c2c(F)cccc2F)=NC1c1ccc(-c2ccc(OC(F)(F)F)cc2)cc1 (some centres unmarked) [Example 31]

chromatographic logP | SMILES
4.77 | CC(C)(COC(=O)[C@H]1CC(c2c(F)cccc2F)=NC1c1ccc(-c2ccc(OC(F)(F)F)cc2)cc1)[N+](=O)[O-] (some centres unmarked) [Example 32]
5.78 | O=C(OCCCc1ccccc1)[C@H]1CC(c2c(F)cccc2F)=NC1c1ccc(-c2ccc(OC(F)(F)F)cc2)cc1 (some centres unmarked) [Example 33]
5.31 | O=C(OCc1ccccc1)[C@H]1CC(c2c(F)cccc2F)=NC1c1ccc(-c2ccc(OC(F)(F)F)cc2)cc1 (some centres unmarked) [Example 34]
5.65 | O=C(OCc1ccccc1Cl)[C@H]1CC(c2c(F)cccc2F)=NC1c1ccc(-c2ccc(OC(F)(F)F)cc2)cc1 (some centres unmarked) [Example 35]
5.58 | O=C(OCc1cccc(Cl)c1)[C@H]1CC(c2c(F)cccc2F)=NC1c1ccc(-c2ccc(OC(F)(F)F)cc2)cc1 (some centres unmarked) [Example 36]
5.54 | CC(OC(=O)[C@H]1CC(c2c(F)cccc2F)=NC1c1ccc(-c2ccc(OC(F)(F)F)cc2)cc1)c1ccccc1 (some centres unmarked) [Example 38]
4.67 | COC(=O)[C@@H](C)COC(=O)[C@H]1CC(c2c(F)cccc2F)=NC1c1ccc(-c2ccc(OC(F)(F)F)cc2)cc1 (some centres unmarked) [Example 39]
4.67 | COC(=O)[C@H](C)COC(=O)[C@H]1CC(c2c(F)cccc2F)=NC1c1ccc(-c2ccc(OC(F)(F)F)cc2)cc1 (some centres unmarked) [Example 40]
6.28 | O=C(OCC1CCCCC1)[C@H]1CC(c2c(F)cccc2F)=NC1c1ccc(-c2ccc(OC(F)(F)F)cc2)cc1 (some centres unmarked) [Example 41]
5.21 | O=C(OCCOc1ccccc1)[C@H]1CC(c2c(F)cccc2F)=NC1c1ccc(-c2ccc(OC(F)(F)F)cc2)cc1 (some centres unmarked) [Example 42]
5.19 | O=C(OCc1cccs1)[C@H]1CC(c2c(F)cccc2F)=NC1c1ccc(-c2ccc(OC(F)(F)F)cc2)cc1 (some centres unmarked) [Example 43]
5.14 | O=C(OCc1ccsc1)[C@H]1CC(c2c(F)cccc2F)=NC1c1ccc(-c2ccc(OC(F)(F)F)cc2)cc1 (some centres unmarked) [Example 44]
3.72 | O=C(OCCCN1CCCC1=O)[C@H]1CC(c2c(F)cccc2F)=NC1c1ccc(-c2ccc(OC(F)(F)F)cc2)cc1 (some centres unmarked) [Example 45]
4.98 | CC(C)N(C(=O)COC(=O)[C@H]1CC(c2c(F)cccc2F)=NC1c1ccc(-c2ccc(OC(F)(F)F)cc2)cc1)c1ccc(F)cc1 (some centres unmarked) [Example 46]
4.82 | O=C(OCc1ccc(Cl)nc1)[C@H]1CC(c2c(F)cccc2F)=NC1c1ccc(-c2ccc(OC(F)(F)F)cc2)cc1 (some centres unmarked) [Example 47]
6.22 | CC1CCC(OC(=O)[C@H]2CC(c3c(F)cccc3F)=NC2c2ccc(-c3ccc(OC(F)(F)F)cc3)cc2)CC1 (some centres unmarked) [Example 48]
6.54 | CC(OC(=O)[C@H]1CC(c2c(F)cccc2F)=NC1c1ccc(-c2ccc(OC(F)(F)F)cc2)cc1)C1CCCCC1 (some centres unmarked) [Example 50]
5.97 | O=C(OC1CCCc2ccccc21)[C@H]1CC(c2c(F)cccc2F)=NC1c1ccc(-c2ccc(OC(F)(F)F)cc2)cc1 (some centres unmarked) [Example 51]
5.71 | O=C(OC1CCc2ccccc21)[C@H]1CC(c2c(F)cccc2F)=NC1c1ccc(-c2ccc(OC(F)(F)F)cc2)cc1 (some centres unmarked) [Example 52]
4.13 | O=C(OCc1ccccn1)[C@H]1CC(c2c(F)cccc2F)=NC1c1ccc(-c2ccc(OC(F)(F)F)cc2)cc1 (some centres unmarked) [Example 53]
3.59 | O=C(OCc1cccnc1)[C@H]1CC(c2c(F)cccc2F)=NC1c1ccc(-c2ccc(OC(F)(F)F)cc2)cc1 (some centres unmarked) [Example 54]

Same assay, conditions: reversed-phase HPLC column (C 18), pH 7.5, pH 7.5 (marked b), 0.01-molar aqueous phosphate buffer/acetonitrile, 43° C.

chromatographic logP | SMILES
5.49 | CCCCOC(=O)[C@H]1CC(c2c(F)cccc2F)=NC1c1ccc(-c2ccc(OC(F)(F)F)cc2)cc1 (some centres unmarked) [Example 14]
6.18 | CCCCCCOC(=O)[C@H]1CC(c2c(F)cccc2F)=NC1c1ccc(-c2ccc(OC(F)(F)F)cc2)cc1 (some centres unmarked) [Example 15]
5.48 | CCC(C)OC(=O)[C@H]1CC(c2c(F)cccc2F)=NC1c1ccc(-c2ccc(OC(F)(F)F)cc2)cc1 (some centres unmarked) [Example 16]
5.47 | CC(C)COC(=O)[C@H]1CC(c2c(F)cccc2F)=NC1c1ccc(-c2ccc(OC(F)(F)F)cc2)cc1 (some centres unmarked) [Example 17]
5.54 | O=C(OC1CCCC1)[C@H]1CC(c2c(F)cccc2F)=NC1c1ccc(-c2ccc(OC(F)(F)F)cc2)cc1 (some centres unmarked) [Example 18]
5.91 | O=C(OC1CCCCC1)[C@H]1CC(c2c(F)cccc2F)=NC1c1ccc(-c2ccc(OC(F)(F)F)cc2)cc1 (some centres unmarked) [Example 19]
